Test results reported in US20260207615A1, “FLUOROPYRIDOPYRIMIDINE AND FLUOROQUINAZOLINE DERIVATIES AND METHODS OF USE THEREOF” (Frontier Medicines Corporation, priority 2022, published 2026).

Molecular target: T1, KRAS G12C and cRAF interaction (Homo sapiens, UniProt P01116, C118S/C51S/C80L/G12C)
T1 construct: truncated version comprising amino acids 1-169
Test: Inhibition of KRAS G12C and cRAF binding (AlphaScreen)
Format: biochemical
Conditions: KRAS G12C (Cys-light, aa 1-169) preloaded with GMPPNP, cRaf RBD (aa 50-131), 2 hours incubation
Protocol: The AlphaScreen technology was used to determine IC50s for compound inhibition of KRAS G12C (present as the Cys-light (C51S, C80L and C118S), truncated version comprising amino acids 1-169) and cRAF interaction. Compounds were diluted in 100% DMSO and each compound concentration was spotted at 200 nl/well onto low volume, white 384 well plates. The KRAS G12C contained a biotin-AviTag and the cRaf, as Ras-binding domain (amino acids 50-131, RBD), was GST-tagged. KRAS G12C was preloaded with the GTP analogue Guanosine 5′-[β,γ-imido]triphosphate (GMPPNP). The KRAS G12C was diluted in 25 mM Hepes, pH 7.4, 150 mM NaCl, 5 mM MgCl2, 0.01% TritonX-100 and 10 μM GMPPNP and added at 10 μl/well to compound-spotted plates resulting in a DMSO concentration of 2%. Plates were incubated for 2 hours. A mixture of RBD and the AlphaScreen streptavidin donor and glutathione acceptor beads diluted in 25 mM Hepes, pH 7.4, 150 mM NaCl, 5 mM MgCl2, 0.01% TritonX-100 and 2% DMSO was then added at 10 μl/well and incubated for 60-90 minutes before the samples were read for emission at 570 nm after excitation of the donor beads at 680 nm. All incubations were performed at room temperature. The final top compound concentration was 50 μM with 1:3 titrations for 10-point dose response curves. Final assay conditions were 0.5 nM KRAS G12C, 0.75 nM RBD and 5 μg/ml each of AlphaScreen donor and acceptor beads. IC50S were determined using nonlinear regression fit of [inhibitor] vs. response (4 parameters).
A counter assay was also set up to rule out inhibitors of the AlphaScreen technology itself. Compound plates were incubated for 2 hours as above with buffer only.
The AlphaScreen beads were added as above except biotin-AviTag-GST was substituted for the RBD. Samples were read and analyzed as above.

T1 sequence (P01116 1-169 isoform P01116-2 G12C/C51S/C80L/C118S): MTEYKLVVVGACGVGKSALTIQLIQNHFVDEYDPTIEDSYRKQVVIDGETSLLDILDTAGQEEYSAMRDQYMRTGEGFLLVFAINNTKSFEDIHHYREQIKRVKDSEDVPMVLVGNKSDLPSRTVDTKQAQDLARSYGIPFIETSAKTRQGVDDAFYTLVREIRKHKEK

IC50 [nM] | Compound
< 10 | CN1CC[C@@H]1/C=C/C(=O)N1CCN(c2nc(OC[C@@]34CCCN3C[C@H](F)C4)nc3c(F)c(-c4cc(O)cc(Cl)c4C4CC4)ncc23)CC12COC2 [Example 73, (E)-1-(8-(7-(3-chloro-2-cyclopropyl-5-hydroxyphenyl)-8-fluoro-2-(((2R,7aS)-2-fluorotetrahydro-1H-pyrrolizin-7a(5H)-yl)methoxy)pyrido[4,3-d]pyrimidin-4-yl)-2-oxa-5,8-diazaspiro[3.5]nonan-5-yl)-3-((R)-1-methylazetidin-2-yl) prop-2-en-1-one]
100 to 500 | Cc1cc(/C=C/C(=O)N2CCN(c3nc(OC[C@@]45CCCN4C[C@H](F)C5)nc4c(F)c(-c5cccc(Cl)c5C(F)(F)F)ncc34)CC23COC3)nc(C)n1 [Example 69]
100 to 500 | C=CC(=O)N1CCN(c2nc(OC[C@@]34CCCN3C[C@H](F)C4)nc3c(F)c(-c4cccc5cccc(Cl)c45)ncc23)C[C@@]12CCOC2 [Example 88]
< 10 | O=C(/C=C/CN1[C@@H]2CC[C@H]1COC2)N1CCN(c2nc(OC[C@@]34CCCN3C[C@H](F)C4)nc3c(F)c(-c4cccc5cccc(Cl)c45)ncc23)CC12COC2 [Example 4, (E)-4-((1R,5S)-3-oxa-8-azabicyclo[3.2.1]octan-8-yl)-1-(8-(7-(8-chloronaphthalen-1-yl)-8-fluoro-2-(((2R,7aS)-2-fluorotetrahydro-1H-pyrrolizin-7a(5H)-yl)methoxy)pyrido[4,3-d]pyrimidin-4-yl)-2-oxa-5,8-diazaspiro[3.5]nonan-5-yl) but-2-en-1-one]
< 10 | O=C(/C=C/CN1[C@@H]2CC[C@H]1COC2)N1CCN(c2nc(OC[C@@]34CCCN3C[C@H](F)C4)nc3c(F)c(-c4cccc(Cl)c4C4CC4)ncc23)CC12COC2 [Example 24, (E)-4-((1R,5S)-3-oxa-8-azabicyclo[3.2.1]octan-8-yl)-1-(8-(7-(3-chloro-2-cyclopropylphenyl)-8-fluoro-2-(((2R,7aS)-2-fluorotetrahydro-1H-pyrrolizin-7a(5H)-yl)methoxy)pyrido[4,3-d]pyrimidin-4-yl)-2-oxa-5,8-diazaspiro[3.5]nonan-5-yl) but-2-en-1-one]
10 to 100 | C=CC(=O)N1C(C)CN(c2nc(OC[C@@]34CCCN3C[C@H](F)C4)nc3c(F)c(-c4cccc5cccc(Cl)c45)ncc23)CC12COC2 (stereo partly drawn) [Example 53, 1-(8-(7-(8-chloronaphthalen-1-yl)-8-fluoro-2-(((2R,7aS)-2-fluorotetrahydro-1H-pyrrolizin-7a(5H)-yl)methoxy)pyrido[4,3-d]pyrimidin-4-yl)-6-methyl-2-oxa-5,8-diazaspiro[3.5]nonan-5-yl) prop-2-en-1-one]
< 10 | Cc1nccc(/C=C(\F)C(=O)N2CCN(c3nc(OC[C@@]45CCCN4C[C@H](F)C5)nc4c(F)c(-c5cccc6ccc(F)c(F)c56)ncc34)CC23COC3)n1 [Example 60, (Z)-1-(8-(7-(7,8-difluoronaphthalen-1-yl)-8-fluoro-2-(((2R,7aS)-2-fluorotetrahydro-1H-pyrrolizin-7a(5H)-yl)methoxy)pyrido[4,3-d]pyrimidin-4-yl)-2-oxa-5,8-diazaspiro[3.5]nonan-5-yl)-2-fluoro-3-(2-methylpyrimidin-4-yl) prop-2-en-1-one]
10 to 100 | O=C(/C=C/CN1C[C@@H]2C[C@H]1CO2)N1CCN(c2nc(OC[C@@]34CCCN3C[C@H](F)C4)nc3c(F)c(-c4cccc(Cl)c4C(F)(F)F)ncc23)CC12COC2 [Example 57, (E)-4-((1S,4S)-2-oxa-5-azabicyclo[2.2.1]heptan-5-yl)-1-(8-(7-(3-chloro-2-(trifluoromethyl)phenyl)-8-fluoro-2-(((2R,7aS)-2-fluorotetrahydro-1H-pyrrolizin-7a(5H)-yl)methoxy)pyrido[4,3-d]pyrimidin-4-yl)-2-oxa-5,8-diazaspiro[3.5]nonan-5-yl) but-2-en-1-one]
≥ 500 | C=CC(=O)N1CCN(c2nc(OC[C@@]34CCCN3C[C@H](F)C4)nc3c(F)c(-c4ccc(F)c5sc(N)nc45)c(C(F)(F)F)cc23)C[C@@]12CCOC2 [Example 93]
100 to 500 | C=CC(=O)N1[C@H](C)CN(c2nc(OC[C@@]34CCCN3C[C@H](F)C4)nc3c(F)c(-c4cccc5cccc(Cl)c45)ncc23)CC12COC2 [Example 72]
< 10 | C#Cc1c(F)ccc2cccc(-c3ncc4c(N5CCN(C(=O)/C=C/CN6C[C@@H]7C[C@H]6CO7)C6(COC6)C5)nc(OC[C@@]56CCCN5C[C@H](F)C6)nc4c3F)c12 [Example 42, (E)-4-((1S,4S)-2-oxa-5-azabicyclo[2.2.1]heptan-5-yl)-1-(8-(7-(8-ethynyl-7-fluoronaphthalen-1-yl)-8-fluoro-2-(((2R,7aS)-2-fluorotetrahydro-1H-pyrrolizin-7a(5H)-yl)methoxy)pyrido[4,3-d]pyrimidin-4-yl)-2-oxa-5,8-diazaspiro[3.5]nonan-5-yl) but-2-en-1-one]
100 to 500 | CN(C)C/C=C/C(=O)N1CCN(c2nc(OC[C@@]34CCCN3C[C@H](F)C4)nc3c(F)c(-c4cccc(Cl)c4C(F)(F)F)ncc23)CC12COC2 [Example 71]
< 10 | C#Cc1c(F)ccc2cccc(-c3ncc4c(N5CCN(C(=O)/C=C/CN6[C@@H]7CC[C@H]6COC7)C6(COC6)C5)nc(OC[C@@]56CCCN5C[C@H](F)C6)nc4c3F)c12 [Example 34, (E)-4-((1R,5S)-3-oxa-8-azabicyclo[3.2.1]octan-8-yl)-1-(8-(7-(8-ethynyl-7-fluoronaphthalen-1-yl)-8-fluoro-2-(((2R,7aS)-2-fluorotetrahydro-1H-pyrrolizin-7a(5H)-yl)methoxy)pyrido[4,3-d]pyrimidin-4-yl)-2-oxa-5,8-diazaspiro[3.5]nonan-5-yl) but-2-en-1-one]
10 to 100 | C=CC(=O)N1CCN(c2nc(OC[C@@]34CCCN3C[C@H](F)C4)nc3c(F)c(-c4cccc(Cl)c4C(F)(F)F)ncc23)CC12COC2 [Example 39, 1-(8-(7-(3-chloro-2-(trifluoromethyl)phenyl)-8-fluoro-2-(((2R,7aS)-2-fluorotetrahydro-1H-pyrrolizin-7a(5H)-yl)methoxy)pyrido[4,3-d]pyrimidin-4-yl)-2-oxa-5,8-diazaspiro[3.5]nonan-5-yl) prop-2-en-1-one]
10 to 100 | C#Cc1c(F)ccc2cccc(-c3ncc4c(N5CCN(C(=O)/C=C/[C@H]6CCN6C)C6(COC6)C5)nc(OC[C@@]56CCCN5C[C@H](F)C6)nc4c3F)c12 [Example 66]
10 to 100 | CN(C/C=C/C(=O)N1CCN(c2nc(OC[C@@]34CCCN3C[C@H](F)C4)nc3c(F)c(-c4cccc5cccc(Cl)c45)ncc23)CC12COC2)CC1COC1 [Example 3, (E)-1-(8-(7-(8-chloronaphthalen-1-yl)-8-fluoro-2-(((2R,7aS)-2-fluorotetrahydro-1H-pyrrolizin-7a(5H)-yl)methoxy)pyrido[4,3-d]pyrimidin-4-yl)-2-oxa-5,8-diazaspiro[3.5]nonan-5-yl)-4-(methyl(oxetan-3-ylmethyl)amino)but-2-en-1-one]
10 to 100 | O=C(/C=C/CN1C[C@H]2C[C@@H]1CO2)N1CCN(c2nc(OC[C@@]34CCCN3C[C@H](F)C4)nc3c(F)c(-c4cccc5cccc(Cl)c45)ncc23)CC12COC2 [Example 13, (E)-4-((1R,4R)-2-oxa-5-azabicyclo[2.2.1]heptan-5-yl)-1-(8-(7-(8-chloronaphthalen-1-yl)-8-fluoro-2-(((2R,7aS)-2-fluorotetrahydro-1H-pyrrolizin-7a(5H)-yl)methoxy)pyrido[4,3-d]pyrimidin-4-yl)-2-oxa-5,8-diazaspiro[3.5]nonan-5-yl) but-2-en-1-one]
< 10 | O=C(/C=C/CN1C[C@H]2C[C@@H]1CO2)N1CCN(c2nc(OC[C@@]34CCCN3C[C@H](F)C4)nc3c(F)c(-c4cccc5ccc(F)c(Cl)c45)ncc23)CC12COC2 [Example 9, (E)-4-((1R,4R)-2-oxa-5-azabicyclo[2.2.1]heptan-5-yl)-1-(8-(7-(8-chloro-7-fluoronaphthalen-1-yl)-8-fluoro-2-(((2R,7aS)-2-fluorotetrahydro-1H-pyrrolizin-7a(5H)-yl)methoxy)pyrido[4,3-d]pyrimidin-4-yl)-2-oxa-5,8-diazaspiro[3.5]nonan-5-yl) but-2-en-1-one]
100 to 500 | CC(C#CC(=O)N1CCN(c2nc(OC[C@@]34CCCN3C[C@H](F)C4)nc3c(F)c(-c4cccc5cccc(Cl)c45)ncc23)CC12COC2)N1CCOCC1 (stereo partly drawn) [Example 40, 1-(8-(7-(8-chloronaphthalen-1-yl)-8-fluoro-2-(((2R,7aS)-2-fluorotetrahydro-1H-pyrrolizin-7a(5H)-yl)methoxy)pyrido[4,3-d]pyrimidin-4-yl)-2-oxa-5,8-diazaspiro[3.5]nonan-5-yl)-4-morpholinopent-2-yn-1-one]
100 to 500 | C=CC(=O)N1CCN(c2nc(OC[C@@H]3CCCN3C)nc3c(F)c(-c4cccc5cccc(Cl)c45)ncc23)CC12COC2 [Example 1, (S)-1-(8-(7-(8-chloronaphthalen-1-yl)-8-fluoro-2-((1-methylpyrrolidin-2-yl)methoxy)pyrido[4,3-d]pyrimidin-4-yl)-2-oxa-5,8-diazaspiro[3.5]nonan-5-yl) prop-2-en-1-one]
